Results from PMC11099041, “Tissue distribution and retention drives efficacy of rapidly clearing VHL-based PROTACs” (Communications Medicine, 2024).
Read-outs that look alike come from different tables or passages of the source.

Experiment: Mouse pharmacokinetics in CD-1 mice (blood, kidney, liver, lung)
Assay type: in vivo
Conditions: for Tmax: mouse, dose = c0, matrix = c1 of the line
Procedure: For the PK study, a total of 42 male CD-1 mice weighing ~20-35 g were acquired from Lingchang/Vital River Laboratory Animal Co., Ltd. (Shanghai/Beijing, P.R. China) and divided into 2 treatment groups. […] was dosed with one low dose (1 mg/kg) and one high dose group (20 mg/kg). For the low-dose groups, nine animals were required for organ quantification with termination at 24 hours. For the high-dose groups, 12 animals were required for organ quantification with termination at 48 hours. The animal was administered either 1 mg/kg or 20 mg/kg of formulation solution (10% HP-β-CD in acetate buffer at pH 4.0) by IV bolus through the left lateral tail vein injection. […] Blood samples were placed on wet ice, mixed, then frozen and stored in a freezer set to -60 °C or lower until analysis. After the blood samples were collected at the terminal time points, the animals were sacrificed, and the liver, lung and kidney were harvested. The tissues were rinsed in cold water and then blotted on filter papers, weighed and homogenized using pre-cooled water at the ratio of 1:4. The tissue homogenate samples were kept at -70 °C until analysis. […] Working standard solutions were spiked into 25 μL of blank matrix on the sample plate. […] The supernatant (20 μL) was transferred into the MS injection plate, then diluted with water before injection for LC-MS/MS analysis. The concentrations of […] were quantified by an LC-MS/MS method. The LC-MS/MS system was a Waters Acquity UPLC System (Milford, MA) coupled to a Sciex Triple Quad 6500 Plus mass spectrometer (AB Sciex, Foster City, CA). The aqueous mobile phase for the analysis was 0.1% formic acid and 2 mM ammonium formate in water/ACN (v:v, 95:5) (A), and the organic mobile phase was 0.1% formic acid and 2 mM ammonium formate in ACN/water (v:v, 95:5) (B). […] Column temperature was set at 50 °C. […] The flow rate was set at 0.7 mL/min. […] The lower limit of quantitation in all matrices was 5.1 ng/mL. The mean time concentration profile was generated for each group, and an overall AUC was then calculated with these sparse samples of rats and mice. […] The following parameters were estimated whenever possible: C0, Back-extrapolated concentration at time 0; Cmax, Maximum observed concentration; Tmax, Time of maximum observed concentration; AUC0-t, Area under the concentration-time curve from hour 0 to the last measurable concentration, estimated by the linear trapezoidal rule; AUC0-336, Area under the concentration-time curve from hour 0 to hour 336, estimated by the linear trapezoidal rule; DN AUC0-336, Dose normalized AUC0-336, calculated as AUC0-336/dose level; […] AUC0-∞ = AUC0-t + Ct/λz, where Ct is the last measurable concentration and λz is the elimination rate constant; t1/2, Elimination half-life, determined by ln(2)/λz; CL, Clearance, calculated as dose/AUC0-inf; Vd, Volume of distribution based on the terminal phase, calculated as: dose/(λz × AUC0-∞) Nominal doses and sampling times were used. […] Embedded zeros were excluded from kinetic analysis.

[1] = male, CD-1, mouse, in vivo, 1 mg/kg, Kidney, 1 mg/kg IV, individual animals, read-out: Concentration (µM) from 1 mg/kg Dosing Kidney
[2] = male, CD-1, mouse, in vivo, 1 mg/kg, Kidney, 1 mg/kg IV, mean, read-out: Concentration (µM) from 1 mg/kg Dosing Kidney
[3] = male, CD-1, mouse, in vivo, 1 mg/kg, Liver, 1 mg/kg IV, individual animals, read-out: Concentration (µM) from 1 mg/kg Dosing Liver
[4] = male, CD-1, mouse, in vivo, 1 mg/kg, Liver, 1 mg/kg IV, mean, read-out: Concentration (µM) from 1 mg/kg Dosing Liver
[5] = male, CD-1, mouse, in vivo, 1 mg/kg, Lung, 1 mg/kg IV, individual animals, read-out: Concentration (µM) from 1 mg/kg Dosing Lung
[6] = male, CD-1, mouse, in vivo, 1 mg/kg, Lung, 1 mg/kg IV, mean, read-out: Concentration (µM) from 1 mg/kg Dosing Lung
[7] = male, CD-1, mouse, in vivo, 20 mg/kg, Blood, 20 mg/kg IV, individual animals, read-out: Concentration (µM) from 20 mg/kg Dosing Blood
[8] = male, CD-1, mouse, in vivo, 20 mg/kg, Blood, 20 mg/kg IV, mean, read-out: Concentration (µM) from 20 mg/kg Dosing Blood
[9] = male, CD-1, mouse, in vivo, 20 mg/kg, Kidney, 20 mg/kg IV, individual animals, read-out: Concentration (µM) from 20 mg/kg Dosing Kidney
[10] = male, CD-1, mouse, in vivo, 20 mg/kg, Kidney, 20 mg/kg IV, mean, read-out: Concentration (µM) from 20 mg/kg Dosing Kidney
[11] = male, CD-1, mouse, in vivo, 20 mg/kg, Liver, 20 mg/kg IV, mean, read-out: Concentration (µM) from 20 mg/kg Dosing Liver
[12] = male, CD-1, mouse, in vivo, 20 mg/kg, Lung, 20 mg/kg IV, individual animals, read-out: Concentration (µM) from 20 mg/kg Dosing Lung
[13] = male, CD-1, mouse, in vivo, 20 mg/kg, Lung, 20 mg/kg IV, mean, read-out: Concentration (µM) from 20 mg/kg Dosing Lung
[14] = male, CD-1, mouse, kidney, intravenous, 20 mg/kg, Kidney, 20 mg/kg IV, individual animals, read-out: Concentration (µM) from 20 mg/kg Dosing Kidney
[15] = male, CD-1, mouse, kidney, intravenous, 20 mg/kg, Kidney, 20 mg/kg IV, mean, read-out: Concentration (µM) from 20 mg/kg Dosing Kidney
[16] = male, CD-1, mouse, liver, intravenous, 20 mg/kg, Liver, 20 mg/kg IV, mean, read-out: Concentration (µM) from 20 mg/kg Dosing Liver
[17] = male, CD-1, mouse, lung, intravenous, 20 mg/kg, Lung, 20 mg/kg IV, mean, read-out: Concentration (µM) from 20 mg/kg Dosing Lung

For Cc1ncsc1-c1ccc(C(C)NC(=O)C2CC(O)CN2C(=O)C(c2cc(N3CCC(CN4CCC(OC5CC(Oc6cc(N7C8CCC7CN(c7cc(-c9ccccc9O)nnc7N)C8)ccn6)C5)CC4)CC3)no2)C(C)C)cc1 (centres unmarked) [A947], the concentration at 4 h (male, CD-1, mouse, in vivo, 1 mg/kg, Blood, 1 mg/kg IV, mean, read-out: Concentration (µM) from 1 mg/kg Dosing Blood) was 0.005 µM, the concentration at 4 h [1] was 0.753 µM and the concentration at 4 h [2] was 0.561 µM. It also gave a concentration at 8 h [1] of 0.282 µM, a concentration at 8 h [2] of 0.32 µM and a concentration at 24 h [1] of 0.019 µM. The concentration at 24 h [2] was 0.023 µM, the concentration at 4 h [3] was 0.071 µM and the concentration at 4 h [4] was 0.079 µM. It also gave a concentration at 8 h [3] of 0.057 µM, a concentration at 8 h [4] of 0.045 µM and a concentration at 24 h (male, CD-1, mouse, in vivo, 1 mg/kg, Liver, 1 mg/kg IV, individual animals, BLOQ <5.1 ng/mL, read-out: Concentration (µM) from 1 mg/kg Dosing Liver) of 0.006 µM. For the same compound, the concentration at 24 h [4] was 0.006 µM, the concentration at 4 h [5] was 0.098 µM and the concentration at 4 h [6] was 0.094 µM. It also gave a concentration at 8 h [5] of 0.048 µM, a concentration at 8 h [6] of 0.062 µM and a concentration at 24 h [5] of 0.014 µM. The concentration at 24 h [6] was 0.014 µM, the concentration at 0.083 h [7] was 13.3 µM and the concentration at 0.083 h [8] was 11.1 µM. It also gave a concentration at 0.25 h [7] of 4.28 µM, a concentration at 0.25 h [8] of 3.65 µM and a concentration at 0.5 h [7] of 2.54 µM. It also gave a concentration at 0.5 h [8] of 1.93 µM, a concentration at 1 h [7] of 0.951 µM and a concentration at 1 h [8] of 0.847 µM. For the same compound, the concentration at 2 h [7] was 0.294 µM, the concentration at 2 h [8] was 0.252 µM and the concentration at 4 h [8] was 0.154 µM. For the same compound, the concentration at 8 h [7] was 0.048 µM, the concentration at 8 h [8] was 0.047 µM and the concentration at 4 h [9] was 16.9 µM. The concentration at 4 h [10] was 14 µM, the concentration at 8 h [9] was 6.14 µM and the concentration at 8 h [10] was 8.43 µM. For the same compound, the concentration at 4 h [11] was 48.4 µM, the concentration at 8 h (male, CD-1, mouse, in vivo, 20 mg/kg, Liver, 20 mg/kg IV, individual animals, read-out: Concentration (µM) from 20 mg/kg Dosing Liver) was 15.1 µM and the concentration at 8 h [11] was 19.2 µM. The concentration at 4 h [12] was 5.1 µM, the concentration at 4 h [13] was 5.75 µM and the concentration at 8 h [12] was 1.59 µM. The concentration at 8 h [13] was 2.31 µM, the concentration at 24 h [14] was 0.28 µM and the concentration at 24 h [15] was 0.361 µM. It also gave a concentration at 48 h [14] of 0.11 µM, a concentration at 48 h [15] of 0.086 µM and a Kp (male, CD-1, mouse, kidney, intravenous, 20 mg/kg, for the 2 dose levels (1, 20 mg/kg), read-out: Tissue-to-blood AUC ratio, kidney) of 160 to 243. The concentration at 24 h (male, CD-1, mouse, liver, intravenous, 20 mg/kg, Liver, 20 mg/kg IV, individual animals, read-out: Concentration (µM) from 20 mg/kg Dosing Liver) was 14.3 µM, the concentration at 24 h [16] was 10.8 µM and the concentration at 48 h [16] was 1.9 µM. The Kp (male, CD-1, mouse, liver, intravenous, for the 2 dose levels, read-out: Tissue-to-blood AUC ratio, liver) was 50 to 127, the concentration at 24 h [17] was 0.602 µM and the concentration at 48 h [17] was 0.658 µM. The Kp (male, CD-1, mouse, lung, intravenous, for the 2 dose levels, read-out: Tissue-to-blood AUC ratio, lung) was 26 to 50, the clearance (male, CD-1, mouse, whole blood, iv, CD-1 mice IV, blood, dose = c0) was 15 to 20 mL/min/kg and the Tmax (male, blood, kidney, liver, lung (per row, column Matrix), CD-1 mice IV) was 0.083 h. For the same compound, the Tmax (male, kidney, liver, lung, CD-1 mice IV) was 4 h and the “Initial decrease of concentration in blood” value (mice IV 1 and 20 mg/kg, within initial 4 hours) was over 90%.
